{"source": "paper PMC7329864", "about": "“Role of water in cyclooxygenase catalysis and design of anti-inflammatory agents targeting two sites of the enzyme” (Scientific Reports, 2020)", "key": {"COX-1": {"biological_target": "T1, COX-1 (Ovis aries, UniProt P05979)", "T1 construct": "purchased Cayman Chemical Co. item no; 560131", "T1 sequence (P05979 25-600)": "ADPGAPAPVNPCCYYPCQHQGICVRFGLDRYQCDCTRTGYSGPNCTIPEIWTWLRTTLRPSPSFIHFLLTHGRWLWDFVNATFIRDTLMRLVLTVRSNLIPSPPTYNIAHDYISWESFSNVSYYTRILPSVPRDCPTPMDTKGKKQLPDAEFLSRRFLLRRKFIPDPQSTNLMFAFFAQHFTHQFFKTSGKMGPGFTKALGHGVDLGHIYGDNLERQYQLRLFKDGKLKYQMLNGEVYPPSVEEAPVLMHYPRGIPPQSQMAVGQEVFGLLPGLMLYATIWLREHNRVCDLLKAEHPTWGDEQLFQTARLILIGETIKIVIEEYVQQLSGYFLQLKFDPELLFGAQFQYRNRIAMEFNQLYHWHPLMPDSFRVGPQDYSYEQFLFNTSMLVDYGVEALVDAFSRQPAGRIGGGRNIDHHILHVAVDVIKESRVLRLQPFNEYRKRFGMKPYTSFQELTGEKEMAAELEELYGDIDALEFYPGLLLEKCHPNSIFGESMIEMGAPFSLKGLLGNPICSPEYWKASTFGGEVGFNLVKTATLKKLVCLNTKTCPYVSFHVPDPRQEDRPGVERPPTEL", "assay": "COX inhibitory enzyme immunoassay (COX-1)", "format": "biochemical", "experimental": "All the compounds of Fig. 9 were screened for COX-1/2 inhibitory activity in triplicate at 10^–4–10^–8 M concentration by performing enzyme immunoassays. The activity of the compounds was quantified in terms of amount of prostaglandins produced by the enzymes in the presence of different concentrations of the compound.\nFor studying the COX-1, COX-2 inhibitory activities of the compounds, various reagents were prepared as per the protocol of the assays. The compounds were screened in triplicate at 10^–4–10^–8 M concentration using the procedure as described in the previous report."}, "Swiss albino mice": {"system": "Swiss albino mice", "assay": "Carageenan induced paw edema, anti-inflammatory activity", "format": "in vivo", "experimental": "Since it is known to produce biphasic pain response—the neurogenic pain and the inflammatory phase, 2% formalin injection was given in the right hind paw of the animals (20 µL) and the response was quantified by counting the number of flinching after 30 min of the compound 1 treatment. The inflammatory phase has been reported in the current investigation since the cyclooxygenase inhibitors are known to ameliorate the latter phase. The involvement of cyclooxygenase and lipooxygenase pathways was studied by pretreatment with substance P and nitric oxide pathway was studied by pretreatment with L-arginine and L-NAME as previously described. Anti-inflammatory activity was examined by using carageenan induced paw edema as per the previous report.\nSwiss albino mice of either sex (25–35 g) were used for determining the analgesic and anti-inflammatory activity of the compounds. The animals were maintained at 22 ± 2 °C under 12 h light/12 h dark cycle with free supply of food and water. The study was approved by the IAEC of Guru Nanak Dev University, Amritsar, Punjab, India. A total of six groups of animals with 5 animals in each group were used. The experimental procedure as described in our previous report[52],[57] was used for studying the analgesic and anti-inflammatory activity of the compounds. All the treatments were given intraperitoneally (i.p.)."}, "Acute toxicity studies": {"assay": "Acute toxicity studies", "format": "in vivo", "experimental": "(§1) Acute toxicity studies of 1 were carried out at 3 dose levels of 50 mg Kg^−1, 300 mg Kg^−1 and 2000 mg Kg^−1 by periodic monitoring for the first 24 h and daily monitoring for 14 days[56]. […] A few jumping movements were also observed. However, all these behaviours subsided after 60 min. […] Therefore, complying with the design and the results of in vitro studies, the in vivo experiments were gestured with the emergence of a new category of anti-inflammatory agents.\nAcute Toxicity Studies[56]. Four groups of animals with three animals per group were taken. The first group was administered the vehicle and served as the control group, the second, third and the fourth groups were treated with 1 at doses of 50 mg Kg^−1, 300 mg Kg^−1 and 2000 mg Kg^−1, respectively. All the treatments were administered after 4 h of fasting. Thereafter, the animals were observed continuously for the first four hours and periodically for 24 h. After 14 days, one animal each in control and highest dose of 1 (2000 mg Kg^−1) was sacrificed and histological studies were conducted using H and E staining.\n[56] OECD Guideline for testing of chemicals, 2001. Guideline 423: acute oral toxicity- acute toxic class method, 2001."}, "[1]": {"assay": "In-vivo pharmacokinetic studies", "experimental": "as §1\nIn-vivo Pharmacokinetic studies were performed as per the previously reported protocol."}}, "note": "Where two headings read alike, the source gives them in different places."}
{"smiles": "O=C1NC(=O)C(=Cc2cn(CCCCCCn3c4ccccc4c(=O)c4ccccc43)c3ccccc23)C(=O)N1", "note": "[Compound 1]", "values": [{"measurement": "IC50", "setting": "COX-1", "result": 60, "unit": "µM"}, {"measurement": "reversal of carageenan induced inflammation", "setting": "Swiss albino mice", "result": 90, "unit": "%"}, {"measurement": "paw volume after carageenan injection", "setting": "Swiss albino mice; i.p., comparable to indomethacin", "result": "significant decrease"}, {"measurement": "histological examination of liver, kidney and myocardium", "setting": "Acute toxicity studies; 2000 mg Kg^−1, after 14 days, H and E staining, a few areas of congestion in myocardium and kidney", "result": "grossly unremarkable"}, {"measurement": "mortality in acute toxicity study", "setting": "Acute toxicity studies; 50, 300 and 2000 mg Kg^−1, oral, 14 days of observation", "result": "No mortality"}, {"measurement": "behavioural observations in acute toxicity study", "setting": "Acute toxicity studies; first 60 min after oral administration, subsided after 60 min", "result": "excessive licking, sniffing, grooming and restless movements"}, {"measurement": "Cmax", "setting": "[1]; Animal 1", "result": 3150, "unit": "nM"}, {"measurement": "Tmax", "setting": "[1]; Animal 1", "result": 0.5, "unit": "h"}, {"measurement": "AUC(0-t)", "setting": "[1]; Animal 1, read-out: AUC(0–1440 min) (converted)", "result": 21.4, "unit": "µM·h"}, {"measurement": "half-life", "setting": "[1]; Animal 1, read-out: T1/2", "result": 11.2, "unit": "h"}, {"measurement": "Cmax", "setting": "[1]; Animal 2", "result": 2860, "unit": "nM"}, {"measurement": "Tmax", "setting": "[1]; Animal 2", "result": 0.25, "unit": "h"}, {"measurement": "AUC(0-t)", "setting": "[1]; Animal 2, read-out: AUC(0–1440 min) (converted)", "result": 19.7, "unit": "µM·h"}, {"measurement": "half-life", "setting": "[1]; Animal 2, read-out: T1/2", "result": 6.96, "unit": "h"}, {"measurement": "Cmax", "setting": "[1]; Animal 3", "result": 2600, "unit": "nM"}, {"measurement": "Tmax", "setting": "[1]; Animal 3", "result": 0.5, "unit": "h"}, {"measurement": "AUC(0-t)", "setting": "[1]; Animal 3, read-out: AUC(0–1440 min) (converted)", "result": 20.2, "unit": "µM·h"}, {"measurement": "half-life", "setting": "[1]; Animal 3, read-out: T1/2", "result": 8.68, "unit": "h"}, {"measurement": "Tmax", "setting": "[1]; Mean", "result": 0.417, "unit": "h"}, {"measurement": "AUC(0-t)", "setting": "[1]; Mean, read-out: AUC(0–1440 min) (converted)", "result": 20.4, "unit": "µM·h"}, {"measurement": "half-life", "setting": "[1]; Mean, read-out: T1/2", "result": 8.95, "unit": "h"}, {"measurement": "half-life", "setting": "[1]; read-out: half life (T1/2) (converted)", "result": "~9", "unit": "h"}]}
